Reference: ChEMBL document CHEMBL1150860, “Cox-2 inhibitory effects of naturally occurring and modified fatty acids” (J Nat Prod, 2001)

Key:
[1] = biological target: T1, Prostaglandin G/H synthase 2 (Ovis aries, UniProt P79208); assay: Inhibition of sheep COX2-mediated prostaglandin biosynthesis using [1-14C]arachidonic acid
T1 sequence (P79208 whole entry): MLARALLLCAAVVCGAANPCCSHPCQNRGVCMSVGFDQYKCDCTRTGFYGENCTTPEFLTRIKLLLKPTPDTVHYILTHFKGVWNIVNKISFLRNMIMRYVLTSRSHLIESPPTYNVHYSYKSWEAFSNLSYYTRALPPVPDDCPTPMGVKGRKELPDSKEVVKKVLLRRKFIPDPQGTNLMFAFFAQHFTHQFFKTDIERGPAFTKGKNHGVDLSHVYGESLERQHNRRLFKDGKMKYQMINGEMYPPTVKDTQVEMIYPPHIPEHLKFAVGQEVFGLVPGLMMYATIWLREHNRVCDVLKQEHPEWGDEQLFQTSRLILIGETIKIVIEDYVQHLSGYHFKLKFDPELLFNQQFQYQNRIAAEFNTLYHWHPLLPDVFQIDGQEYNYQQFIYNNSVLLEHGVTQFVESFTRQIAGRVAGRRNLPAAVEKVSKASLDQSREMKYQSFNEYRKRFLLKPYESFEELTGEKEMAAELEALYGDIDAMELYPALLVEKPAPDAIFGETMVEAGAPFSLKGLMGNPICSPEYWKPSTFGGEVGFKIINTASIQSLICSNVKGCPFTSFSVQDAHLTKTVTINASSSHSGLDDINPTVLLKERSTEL

[2] = biological target: T2, Prostaglandin G/H synthase 1 (Bos taurus, UniProt O62664); assay: Inhibition of bovine COX1-mediated prostaglandin biosynthesis using [1-14C]arachidonic acid
T2 sequence (O62664 whole entry): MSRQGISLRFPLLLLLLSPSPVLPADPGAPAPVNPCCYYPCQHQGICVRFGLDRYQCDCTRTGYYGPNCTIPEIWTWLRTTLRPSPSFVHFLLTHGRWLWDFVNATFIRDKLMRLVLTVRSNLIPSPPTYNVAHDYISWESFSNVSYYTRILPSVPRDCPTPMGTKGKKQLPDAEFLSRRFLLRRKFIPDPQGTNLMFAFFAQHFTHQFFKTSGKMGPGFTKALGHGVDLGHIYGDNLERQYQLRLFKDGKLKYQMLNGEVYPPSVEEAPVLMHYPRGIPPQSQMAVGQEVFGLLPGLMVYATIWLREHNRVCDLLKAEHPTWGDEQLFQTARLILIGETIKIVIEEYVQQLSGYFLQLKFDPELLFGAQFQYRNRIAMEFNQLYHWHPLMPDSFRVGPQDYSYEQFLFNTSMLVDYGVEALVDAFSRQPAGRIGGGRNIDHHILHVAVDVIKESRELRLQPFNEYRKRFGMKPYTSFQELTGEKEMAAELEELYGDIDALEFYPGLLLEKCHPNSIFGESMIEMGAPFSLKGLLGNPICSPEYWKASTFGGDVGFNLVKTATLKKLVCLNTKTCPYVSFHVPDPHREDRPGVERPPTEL

[3] = Selectivity ratio for IC50 for sheep COX2 to IC50 for […]

Row | SMILES | IC50 [1] | IC50 [2] | Ratio IC50 [3]
1 | CC/C=C\C/C=C\C/C=C\C/C=C\C/C=C\C/C=C\CCC(=O)O [DOCONEXENT] | 9.8 µM | 15 µM | 0.7
2 | CCCCCCCCCCCCCCCC(=O)O [PALMITIC ACID] | > 500 µM | > 500 µM | 
3 | CCCCCCCCCCCCCCC(=O)O [PENTADECANOIC ACID] | > 500 µM | > 500 µM | 
4 | CC/C=C\C/C=C\C/C=C\C/C=C\C/C=C\CCCC(=O)O [ICOSAPENT] | 7.1 µM | 13 µM | 0.5
5 | CC/C=C\C/C=C\C/C=C\CC/C=C/CSCCCC(=O)O | 120 µM | 81 µM | 1.4
6 | CCCCC/C=C\C/C=C\CCCCCCCC(=O)O [LINOLEIC ACID] | 94 µM | 170 µM | 0.6
7 | CC/C=C\C/C=C\C/C=C\C/C=C\CC/C=C/COCC(=O)O | 180 µM | 50 µM | 3.6
8 | CC/C=C\C/C=C\C/C=C\C/C=C\CCSCC(=O)O | 160 µM | 84 µM | 1.9
9 | CCCCCCCCCCCCCC(=O)O [MYRISTIC ACID] | > 500 µM | > 500 µM | 
10 | CC/C=C\C/C=C\C/C=C\CC/C=C/COCC(=O)O | > 500 µM | > 500 µM | 
11 | CC/C=C\C/C=C\C/C=C\C/C=C\CCOCC(=O)O | > 500 µM | > 500 µM | 
12 | CCCCCCCC/C=C\CCCCCCCC(=O)O [OLEIC ACID] | > 500 µM | > 500 µM | 
13 | CCCCCCCCCCCCCCCCCC(=O)O [STEARIC ACID] | > 500 µM | > 500 µM | 
14 | CC/C=C\C/C=C\C/C=C\C/C=C\CCSCCCC(=O)O | 3.9 µM | 26 µM | 0.2
15 | CC/C=C\C/C=C\C/C=C\CCCCCCCC(=O)O [LINOLENIC ACID] | 12 µM | 93 µM | 0.1
